Measurements from the NIST ThermoML archive (doi:10.1016/j.jct.2005.05.018).
Values joined by “and” are separate entries in the source; they are usually repeats but may differ in a detail not shown here. Equal entries are not always repeated.

Settings: Liquid, Closed cell (Static) method

C[CH2][Sb]([CH2]C)[CH2]C [triethylstibine]
Settings	vapor or sublimation pressure
238.42 K	0.0037 kPa
243.46 K	0.00611 kPa and 0.0061 kPa
248.47 K	0.00991 kPa and 0.00989 kPa and 0.0099 kPa
253.48 K	0.01569 kPa
258.48 K	0.02451 kPa and 0.02448 kPa and 0.02449 kPa
263.48 K	0.03735 kPa and 0.03734 kPa and 0.03733 kPa
268.48 K	0.0557 kPa and 0.05561 kPa and 0.0556 kPa
273.68 K	0.08268 kPa [middle of 4 runs]
278.49 K	0.1181 kPa and 0.118 kPa
283.49 K	0.1676 kPa
285.99 K	0.1995 kPa
288.49 K	0.2362 kPa and 0.2363 kPa
290.99 K	0.2791 kPa and 0.279 kPa
293.49 K	0.3288 kPa and 0.3282 kPa and 0.3281 kPa
295.99 K	0.3849 kPa and 0.385 kPa
298.49 K	0.4505 kPa and 0.4504 kPa and 0.4503 kPa
301 K	0.5246 kPa
